# Biological target: T1, Recombinant human KIF18A (1-467His-tagged) protein (Homo sapiens, UniProt Q8NI77)
# T1 construct: Recombinant human KIF18A (1-467His-tagged) protein; His; made in house
# Test: KIF18A enzyme assay (microtubule-stimulated ATPase activity, ADP-Glo)
# Assay type: biochemical
# Details: 30 nM KIF18A, 75 μM ATP, 30 μg/mL pig microtubules; read-out: Inhibitory activity against KIF18A IC50
# Experimental: In Vitro Assay of the Compounds of the Present Invention for Inhibiting Enzymatic Activity of KIF18A
# KIF18A enzyme assay: The enzymatic activity of KIF18A after treatment with the compounds was measured by an assay of microtubule-stimulated ATPase activity. ADP generated from the ATPase reaction was measured in this assay. The compounds were serially diluted 2-fold in DMSO over a range of 22 concentration points. […] Concentrations of KIF18A protein, microtubules, and ATP in the reaction were optimized for a standardized homogenous enzyme assay using an ADP-Glo kinase/ATPase assay kit. A reaction buffer [(15 mM Tris, pH 7.5), 10 mM MgCl2, 0.01% PluronicF-68, 1 μM paclitaxel, and 30 μg/mL pig microtubules] was prepared. […] The resulting reaction mixture was incubated at room temperature for another 15 min. 5 μL of ADP-Glo reagent and 2.5 μL of the reaction mixture were mixed and the resulting mixture was incubated at room temperature for 40 min. 10 μL of ADP-Glo detection reagent was added and the mixture was incubated at room temperature for 40 min. Luminescence was read using a microplate reader and compared with that of the DMSO group, and then the inhibition percentages and IC50 values of the compounds were calculated.
# T1 sequence (Q8NI77 1-467): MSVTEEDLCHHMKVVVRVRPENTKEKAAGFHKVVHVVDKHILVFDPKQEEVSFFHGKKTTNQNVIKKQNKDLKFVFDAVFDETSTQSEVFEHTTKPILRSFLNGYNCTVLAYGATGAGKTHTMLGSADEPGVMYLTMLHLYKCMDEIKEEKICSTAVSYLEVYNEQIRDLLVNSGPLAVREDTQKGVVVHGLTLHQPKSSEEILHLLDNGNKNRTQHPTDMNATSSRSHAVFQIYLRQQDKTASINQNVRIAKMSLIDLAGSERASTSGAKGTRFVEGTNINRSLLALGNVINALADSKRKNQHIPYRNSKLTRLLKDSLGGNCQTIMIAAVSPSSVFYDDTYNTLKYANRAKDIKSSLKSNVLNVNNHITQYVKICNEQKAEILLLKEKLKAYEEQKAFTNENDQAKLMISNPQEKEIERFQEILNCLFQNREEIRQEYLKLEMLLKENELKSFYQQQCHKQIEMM
# T1 sequence (P02550 whole entry partner): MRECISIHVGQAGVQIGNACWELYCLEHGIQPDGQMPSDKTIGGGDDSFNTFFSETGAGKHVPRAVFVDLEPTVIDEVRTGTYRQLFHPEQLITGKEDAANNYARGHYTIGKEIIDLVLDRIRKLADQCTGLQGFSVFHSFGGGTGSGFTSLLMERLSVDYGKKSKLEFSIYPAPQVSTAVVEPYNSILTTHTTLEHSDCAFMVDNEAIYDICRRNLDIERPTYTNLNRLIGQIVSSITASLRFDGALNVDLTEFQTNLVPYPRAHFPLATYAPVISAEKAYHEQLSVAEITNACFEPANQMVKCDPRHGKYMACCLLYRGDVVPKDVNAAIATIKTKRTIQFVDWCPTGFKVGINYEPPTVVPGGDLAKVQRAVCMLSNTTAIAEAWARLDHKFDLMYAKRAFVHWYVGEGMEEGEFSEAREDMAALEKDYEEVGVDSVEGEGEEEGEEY
# T1 sequence (P02554 whole entry partner): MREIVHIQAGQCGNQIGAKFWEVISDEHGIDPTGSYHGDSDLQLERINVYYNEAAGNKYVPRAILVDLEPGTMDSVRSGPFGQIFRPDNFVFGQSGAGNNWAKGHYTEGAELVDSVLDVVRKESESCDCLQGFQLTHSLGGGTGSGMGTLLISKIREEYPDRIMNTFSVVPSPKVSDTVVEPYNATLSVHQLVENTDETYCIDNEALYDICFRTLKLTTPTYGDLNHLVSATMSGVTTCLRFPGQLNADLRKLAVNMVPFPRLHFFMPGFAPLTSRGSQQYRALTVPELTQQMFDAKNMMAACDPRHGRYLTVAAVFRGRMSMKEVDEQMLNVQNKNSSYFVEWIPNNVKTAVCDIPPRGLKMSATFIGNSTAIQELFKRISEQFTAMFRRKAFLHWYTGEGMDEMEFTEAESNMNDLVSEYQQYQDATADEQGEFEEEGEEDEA
row,Compound,IC50
1,CC(C)(CO)Nc1cc(NC(=O)c2cnc(NS(=O)(=O)CCO)cc2N2CCC3(CC2)CC3)ccc1[N+](=O)[O-] [Compound 107],≤ 100 nM
2,O=C(Nc1ccc([N+](=O)[O-])c(N2CCOCC2)c1)c1cnc(NS(=O)(=O)CCO)cc1N1CCC2(CC1)CC2 [Compound 108],≤ 100 nM
3,C[C@@H]1CN(c2cc(NC(=O)c3cnc(S(=O)(=O)NCCO)cc3N3CCC4(CC3)CC4)ccc2[N+](=O)[O-])CCO1 [Compound 114],≤ 100 nM
4,C[C@H]1CN(c2cc(NC(=O)c3cnc(S(=O)(=O)NCCO)cc3N3CCC4(CC3)CC4)ccc2[N+](=O)[O-])CCO1 [Compound 115],≤ 100 nM
5,O=C(Nc1ccc([N+](=O)[O-])c(N2CC(F)(F)C2)c1)c1cnc(S(=O)(=O)NCCO)cc1N1CCC2(CC1)CC2 [Compound 116],≤ 100 nM
6,O=C(Nc1ccc([N+](=O)[O-])c(OCCC(F)(F)F)c1)c1cnc(S(=O)(=O)NCCO)cc1N1CCC2(CC1)CC2 [Compound 117],≤ 100 nM
7,O=C(Nc1ccc([N+](=O)[O-])c(N2CCC3(CC3)C2)c1)c1cnc(S(=O)(=O)NCCO)cc1N1CCC2(CC1)CC2 [Compound 118],≤ 100 nM
8,O=C(Nc1ccc([N+](=O)[O-])c(OC2CCC2)c1)c1cnc(S(=O)(=O)NCCO)cc1N1CCC2(CC1)CC2 [Compound 119],≤ 100 nM
9,CC1(F)CCN(c2cc(NC(=O)c3cnc(S(=O)(=O)NCCO)cc3N3CCC4(CC3)CC4)ccc2[N+](=O)[O-])C1 (stereo not shown) [Compound 120],≤ 100 nM
10,O=C(Nc1ccc([N+](=O)[O-])c(N2CCC(F)CC2)c1)c1cnc(S(=O)(=O)NCCO)cc1N1CCC2(CC1)CC2 [Compound 121],≤ 100 nM
11,O=C(Nc1ccc([N+](=O)[O-])c(N2CC3CC3C2)c1)c1cnc(S(=O)(=O)NCCO)cc1N1CCC2(CC1)CC2 (stereo not shown) [Compound 122],≤ 100 nM
12,CC(C)(CO)Nc1cc(NC(=O)c2cnc(S(=O)(=O)NCCO)cc2N2CCC3(CC2)CC3)ccc1[N+](=O)[O-] [Compound 123],≤ 100 nM
13,O=C(Nc1ccc([N+](=O)[O-])c(N2CCOCC2)c1)c1cnc(S(=O)(=O)NCCO)cc1N1CCC2(CC1)CC2 [Compound 124],≤ 100 nM
14,C[C@@H]1CN(c2cc(NC(=O)c3cnc(S(=O)(=O)N[C@@H](C)CO)cc3N3CCC4(CC3)CC4)ccc2[N+](=O)[O-])CCO1 [Compound 127],≤ 100 nM
15,C[C@H](CO)NS(=O)(=O)c1cc(N2CCC3(CC2)CC3)c(C(=O)Nc2ccc([N+](=O)[O-])c(N3CCO[C@H](C)C3)c2)cn1 [Compound 128],≤ 100 nM
16,O=C(Nc1ccc([N+](=O)[O-])c(OCCC(F)(F)F)n1)c1cnc(NS(=O)(=O)CCO)cc1N1CCC2(CC1)CC2 [Compound 133],≤ 100 nM
17,CC(C)(CO)Nc1nc(NC(=O)c2cnc(NS(=O)(=O)CCO)cc2N2CCC3(CC2)CC3)ccc1[N+](=O)[O-] [Compound 139],≤ 100 nM
18,O=C(Nc1ccc([N+](=O)[O-])c(OCCC(F)(F)F)n1)c1cnc(S(=O)(=O)NCCO)cc1N1CCC2(CC1)CC2 [Compound 149],≤ 100 nM
19,O=C(Nc1ccc([N+](=O)[O-])c(OC2CCC2)n1)c1cnc(S(=O)(=O)NCCO)cc1N1CCC2(CC1)CC2 [Compound 151],≤ 100 nM
20,O=C(Nc1ccc([N+](=O)[O-])c(N2CC3CC3C2)n1)c1cnc(S(=O)(=O)NCCO)cc1N1CCC2(CC1)CC2 (stereo not shown) [Compound 154],≤ 100 nM
21,CC(C)(CO)Nc1nc(NC(=O)c2cnc(S(=O)(=O)NCCO)cc2N2CCC3(CC2)CC3)ccc1[N+](=O)[O-] [Compound 155],≤ 100 nM
22,C[C@@H]1CN(c2nc(C(=O)Nc3ccc(NS(=O)(=O)CCO)cc3N3CCC4(CC3)CC4)ccc2[N+](=O)[O-])CCO1 [Compound 162],≤ 100 nM
23,C[C@H]1CN(c2nc(C(=O)Nc3ccc(NS(=O)(=O)CCO)cc3N3CCC4(CC3)CC4)ccc2[N+](=O)[O-])CCO1 [Compound 163],≤ 100 nM

# Continued, values first:
row,IC50,Compound
1,≤ 100 nM,C[C@@H](CO)S(=O)(=O)Nc1cc(N2CCC3(CC2)CC3)c(C(=O)Nc2ccc([N+](=O)[O-])c(N3CCC(F)(F)CC3)c2)cn1 [Compound 109]
2,≤ 100 nM,C[C@H](CO)S(=O)(=O)Nc1cc(N2CCC3(CC2)CC3)c(C(=O)Nc2ccc([N+](=O)[O-])c(N3CCC(F)(F)CC3)c2)cn1 [Compound 110]
3,≤ 100 nM,C[C@@H]1CN(c2cc(NC(=O)c3cnc(NS(=O)(=O)[C@@H](C)CO)cc3N3CCC4(CC3)CC4)ccc2[N+](=O)[O-])CCO1 [Compound 111]
4,≤ 100 nM,C[C@@H]1CN(c2cc(NC(=O)c3cnc(NS(=O)(=O)[C@H](C)CO)cc3N3CCC4(CC3)CC4)ccc2[N+](=O)[O-])CCO1 [Compound 112]
5,≤ 100 nM,O=C(Nc1ccc([N+](=O)[O-])c(N2CCC(F)(F)CC2)c1)c1cnc(S(=O)(=O)NCCO)cc1N1CCC2(CC1)CC2 [Compound 113]
6,≤ 100 nM,C[C@@H](CO)NS(=O)(=O)c1cc(N2CCC3(CC2)CC3)c(C(=O)Nc2ccc([N+](=O)[O-])c(N3CCC(F)(F)CC3)c2)cn1 [Compound 125]
7,≤ 100 nM,C[C@H](CO)NS(=O)(=O)c1cc(N2CCC3(CC2)CC3)c(C(=O)Nc2ccc([N+](=O)[O-])c(N3CCC(F)(F)CC3)c2)cn1 [Compound 126]
8,≤ 100 nM,C[C@@H]1CN(c2nc(NC(=O)c3cnc(NS(=O)(=O)CCO)cc3N3CCC4(CC3)CC4)ccc2[N+](=O)[O-])CCO1 [Compound 130]
9,≤ 100 nM,C[C@H]1CN(c2nc(NC(=O)c3cnc(NS(=O)(=O)CCO)cc3N3CCC4(CC3)CC4)ccc2[N+](=O)[O-])CCO1 [Compound 131]
10,≤ 100 nM,O=C(Nc1ccc([N+](=O)[O-])c(N2CC(F)(F)C2)n1)c1cnc(NS(=O)(=O)CCO)cc1N1CCC2(CC1)CC2 [Compound 132]
11,≤ 100 nM,O=C(Nc1ccc([N+](=O)[O-])c(N2CCC3(CC3)C2)n1)c1cnc(NS(=O)(=O)CCO)cc1N1CCC2(CC1)CC2 [Compound 134]
12,≤ 100 nM,O=C(Nc1ccc([N+](=O)[O-])c(OC2CCC2)n1)c1cnc(NS(=O)(=O)CCO)cc1N1CCC2(CC1)CC2 [Compound 135]
13,≤ 100 nM,CC1(F)CCN(c2nc(NC(=O)c3cnc(NS(=O)(=O)CCO)cc3N3CCC4(CC3)CC4)ccc2[N+](=O)[O-])C1 (stereo not shown) [Compound 136]
14,≤ 100 nM,O=C(Nc1ccc([N+](=O)[O-])c(N2CCC(F)CC2)n1)c1cnc(NS(=O)(=O)CCO)cc1N1CCC2(CC1)CC2 [Compound 137]
15,≤ 100 nM,O=C(Nc1ccc([N+](=O)[O-])c(N2CC3CC3C2)n1)c1cnc(NS(=O)(=O)CCO)cc1N1CCC2(CC1)CC2 (stereo not shown) [Compound 138]
16,≤ 100 nM,O=C(Nc1ccc([N+](=O)[O-])c(N2CCOCC2)n1)c1cnc(NS(=O)(=O)CCO)cc1N1CCC2(CC1)CC2 [Compound 140]

row,IC50,Compound
1,≤ 100 nM,C[C@@H](CO)S(=O)(=O)Nc1cc(N2CCC3(CC2)CC3)c(C(=O)Nc2ccc([N+](=O)[O-])c(N3CCC(F)(F)CC3)n2)cn1 [Compound 141]
2,≤ 100 nM,C[C@H](CO)S(=O)(=O)Nc1cc(N2CCC3(CC2)CC3)c(C(=O)Nc2ccc([N+](=O)[O-])c(N3CCC(F)(F)CC3)n2)cn1 [Compound 142]
3,≤ 100 nM,C[C@@H]1CN(c2nc(NC(=O)c3cnc(NS(=O)(=O)[C@@H](C)CO)cc3N3CCC4(CC3)CC4)ccc2[N+](=O)[O-])CCO1 [Compound 143]
4,≤ 100 nM,C[C@@H]1CN(c2nc(NC(=O)c3cnc(NS(=O)(=O)[C@H](C)CO)cc3N3CCC4(CC3)CC4)ccc2[N+](=O)[O-])CCO1 [Compound 144]
5,≤ 100 nM,O=C(Nc1ccc([N+](=O)[O-])c(N2CCC(F)(F)CC2)n1)c1cnc(S(=O)(=O)NCCO)cc1N1CCC2(CC1)CC2 [Compound 145]
6,≤ 100 nM,C[C@@H]1CN(c2nc(NC(=O)c3cnc(S(=O)(=O)NCCO)cc3N3CCC4(CC3)CC4)ccc2[N+](=O)[O-])CCO1 [Compound 146]
7,≤ 100 nM,C[C@H]1CN(c2nc(NC(=O)c3cnc(S(=O)(=O)NCCO)cc3N3CCC4(CC3)CC4)ccc2[N+](=O)[O-])CCO1 [Compound 147]
8,≤ 100 nM,O=C(Nc1ccc([N+](=O)[O-])c(N2CC(F)(F)C2)n1)c1cnc(S(=O)(=O)NCCO)cc1N1CCC2(CC1)CC2 [Compound 148]
9,≤ 100 nM,O=C(Nc1ccc([N+](=O)[O-])c(N2CCC3(CC3)C2)n1)c1cnc(S(=O)(=O)NCCO)cc1N1CCC2(CC1)CC2 [Compound 150]
10,≤ 100 nM,CC1(F)CCN(c2nc(NC(=O)c3cnc(S(=O)(=O)NCCO)cc3N3CCC4(CC3)CC4)ccc2[N+](=O)[O-])C1 (stereo not shown) [Compound 152]
11,≤ 100 nM,O=C(Nc1ccc([N+](=O)[O-])c(N2CCC(F)CC2)n1)c1cnc(S(=O)(=O)NCCO)cc1N1CCC2(CC1)CC2 [Compound 153]
12,≤ 100 nM,O=C(Nc1ccc([N+](=O)[O-])c(N2CCOCC2)n1)c1cnc(S(=O)(=O)NCCO)cc1N1CCC2(CC1)CC2 [Compound 156]
13,≤ 100 nM,C[C@@H](CO)NS(=O)(=O)c1cc(N2CCC3(CC2)CC3)c(C(=O)Nc2ccc([N+](=O)[O-])c(N3CCC(F)(F)CC3)n2)cn1 [Compound 157]
14,≤ 100 nM,C[C@H](CO)NS(=O)(=O)c1cc(N2CCC3(CC2)CC3)c(C(=O)Nc2ccc([N+](=O)[O-])c(N3CCC(F)(F)CC3)n2)cn1 [Compound 158]
15,≤ 100 nM,C[C@@H]1CN(c2nc(NC(=O)c3cnc(S(=O)(=O)N[C@@H](C)CO)cc3N3CCC4(CC3)CC4)ccc2[N+](=O)[O-])CCO1 [Compound 159]
16,≤ 100 nM,C[C@H](CO)NS(=O)(=O)c1cc(N2CCC3(CC2)CC3)c(C(=O)Nc2ccc([N+](=O)[O-])c(N3CCO[C@H](C)C3)n2)cn1 [Compound 160]

# — US20260158017A1, “KIF18A INHIBITOR” (WIGEN BIOMEDICINE TECHNOLOGY (SHANGHAI) CO., LTD., priority 2021, published 2026)
